# In patent publication US8394792B2, “Heterocyclic derivatives” (C&C Research Laboratories, priority 2008, dated 2013):
# Read-outs that look alike come from different tables or passages of the source.
# Key:
# [1] = cited from earlier work; for excretion rate in urine: until 72 hours after administration of benzbromarone
# [2] = tested on: Cebus monkey; assay: Test for uricosuric effect in Cebus monkey; type: in vivo; conditions: for Plasma uric acid level: 4 hours after administration
# [3] = target: T1, hURAT1 (Homo sapiens, UniProt Q96S37); assay: Test for inhibiting urate reuptake activity via hURAT1 (uric acid transport assay in hURAT1-overexpressed HEK293 cell line); type: cell-based; conditions: hURAT1-overexpressed HEK293 cells, [14C]-uric acid uptake, 100 μM uric acid; read-out: IC50 (μM) hURAT, level of uric acid reuptake inhibition
# T1 construct: expressed in transfected cells; host or cells: HEK293 (human kidney cell line), transient transfection with Fugene6
# T1 sequence (Q96S37 1-553): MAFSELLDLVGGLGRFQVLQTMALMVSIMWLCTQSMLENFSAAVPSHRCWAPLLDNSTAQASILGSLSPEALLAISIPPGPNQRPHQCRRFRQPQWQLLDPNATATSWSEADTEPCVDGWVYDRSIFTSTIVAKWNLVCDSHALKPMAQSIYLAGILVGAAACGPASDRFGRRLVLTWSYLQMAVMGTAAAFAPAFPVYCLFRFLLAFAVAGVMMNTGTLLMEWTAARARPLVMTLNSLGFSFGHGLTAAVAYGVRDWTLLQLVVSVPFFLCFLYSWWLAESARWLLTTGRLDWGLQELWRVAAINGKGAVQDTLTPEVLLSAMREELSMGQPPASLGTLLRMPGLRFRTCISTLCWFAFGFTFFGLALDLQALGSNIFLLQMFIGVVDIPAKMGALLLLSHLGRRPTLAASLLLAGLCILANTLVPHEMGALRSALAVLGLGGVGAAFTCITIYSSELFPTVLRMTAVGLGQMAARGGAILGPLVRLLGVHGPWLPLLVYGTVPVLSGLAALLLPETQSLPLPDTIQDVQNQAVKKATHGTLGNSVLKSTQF
# [4] = Test for solubility according to pH; type: physicochemical; conditions: 37° C. 2 hours
# Procedure: 2.0 g of sodium chloride was dissolved in 7.0 mL of hydrochloric acid and water to make the total volume of 1000 mL. This solution was colorless and clear. Its pH was about 1.2.
# To 250 mL of 0.2 mol/L potassium dihydrogen phosphate solution, 118 mL of 0.2 mol/L sodium hydroxide solution and water were added to make the total volume of 1000 mL. This solution was colorless and clear. Its pH was about 6.8.
# For the compounds of present invention prepared in the examples, the test samples were prepared in each of the first and second solutions with 2 mg/mL concentration. This test sample solution was agitated for 10 seconds, sonicated for 1 minute and heated at 37° C. for 2 hours. The heated test sample solution was filtered to remove undissolved compounds therein. From filtered solution, 100 μl of the completely dissolved solution was sampled and 100 μl of acetonitrile was added thereto to make test sample solution. For each analysis of test sample solution, the solubility was measured by using liquid chromatography.
# [5] = target: T2, CYP2C9 (Homo sapiens, UniProt P11712); assay: biochemical
# T2 sequence (P11712 whole entry): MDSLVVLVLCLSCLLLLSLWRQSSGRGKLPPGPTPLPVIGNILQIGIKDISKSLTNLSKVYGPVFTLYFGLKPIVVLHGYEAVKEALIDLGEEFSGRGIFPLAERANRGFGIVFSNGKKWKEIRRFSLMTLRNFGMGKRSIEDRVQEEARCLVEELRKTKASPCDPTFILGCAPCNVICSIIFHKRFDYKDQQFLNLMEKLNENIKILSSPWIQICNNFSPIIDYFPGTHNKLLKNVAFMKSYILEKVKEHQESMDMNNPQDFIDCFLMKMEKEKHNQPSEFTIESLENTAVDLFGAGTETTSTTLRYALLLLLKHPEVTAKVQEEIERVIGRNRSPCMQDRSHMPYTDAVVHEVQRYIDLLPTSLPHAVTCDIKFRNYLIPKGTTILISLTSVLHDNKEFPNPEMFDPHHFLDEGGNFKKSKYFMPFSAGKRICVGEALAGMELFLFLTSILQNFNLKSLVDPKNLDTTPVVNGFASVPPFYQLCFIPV
# [6] = target: T2, CYP2C9
# [7] = 2 tablets (50 mg/tablet) benzbromarone one time, healthy fasting adult
# [8] = oral 15 mg/kg, during 0~8 hours
compound,measurement,setting,value
CCc1oc2cc(O)ccc2c1C(=O)c1cc(Br)c(O)c(Br)c1 [6-hydroxy benzbromarone],half-life of drug,[1]; [7],18.0 ± 2.9 h
same,maximum concentration of drug (Cmax),[1]; [7],1700 ± 400 ng/mL
same,time of maximum drug concentration in blood (Tmax),[1]; [7],4.8 ± 1.3 h
same,excretion rate in urine,[1],1.2 % of the administered amount
"CCc1oc2ccccc2c1C(=O)c1cc(Br)c(O)c(Br)c1 [Benzbromarone, reference compound]",Plasma uric acid level,[2]; oral 15 mg/kg,3.80 mg/dL
same,Fractional excretion rate of uric acid (FEua),[2]; [8],20.0±10.5%
same,area under the curve (AUC),[1]; [7],15900 ± 3300 ng·h/mL
same,half-life of drug,[1]; [7],5.4 ± 1.9 h
same,time of maximum drug concentration in blood (Tmax),[1]; [7],2.7 ± 1.0 h
same,excretion rate in urine,[1],not detected
"O=C(c1cc(Br)c(O)c(Br)c1)N1CCOc2ccncc21 [Compound 4, (3,5-dibromo-4-hydroxy-phenyl)-(2,3-dihydro-pyrido[4,3-b][1,4]oxazin-4-yl)-methanone]",IC50,[3],0.023 µM
same,Solubility (μg/mL) pH 1.2,"[4]; first solution pH about 1.2, 2 mg/mL",1927 μg/mL
same,Solubility (μg/mL) pH 6.8,"[4]; second solution pH about 6.8, 2 mg/mL",970 μg/mL
same,enhanced uricosuric effect compared with Benzbromarone,"[2]; 15 mg/kg, during 0~8 hours",160%
same,Plasma uric acid level,[2]; oral 3.75 mg/kg,3.88 mg/dL
same,Fractional excretion rate of uric acid (FEua),"[2]; oral 3.75 mg/kg, during 0~8 hours",24.1±13.3%
same,Plasma uric acid level,[2]; oral 7.5 mg/kg,3.66 mg/dL
same,Fractional excretion rate of uric acid (FEua),"[2]; oral 7.5 mg/kg, during 0~8 hours",31.6±13.3%
same,Plasma uric acid level,[2]; oral 15 mg/kg,3.40 mg/dL
same,Fractional excretion rate of uric acid (FEua),[2]; [8],33.2±19.8%
same,IC50,[5],24.3 µM
O=C(CN1C(=O)COc2ccncc21)c1cc(Br)c(O)c(Br)c1 [Compound 56],IC50,[6],> 20 µM
